In patent US11312727B1, “Macrocyclic flu endonuclease inhibitors” (Janssen BioPharma, Inc., priority 2018, dated 2022) one finds CC50 and EC50 data, which are given here for 24 molecules.

pEC50: −log10 of the molar value.

One data set is described as follows: in vitro. Conditions: human, CC50, uninfected A549 cells, CellTiter-Glo.
Data set [1] concerns Influenza strain A549 A/WSN/33 (H1N1). The experiment in a line: microbe, parasite or virus in culture. The format is cell-based. The following applies: Influenza A virus, A549, 20 h, A549 cells, influenza A/WSN/33 (H1N1), 20 hours incubation; read-out: A549_A(H1N1) EC50.

The molecule `O=C1c2c(O)c(=O)ccn2N2CN1C1(/C=C\COc3cc(F)c(F)c4c3[C@@H]2c2ccccc2SC4)CC1` (single isomer, unassigned) [Compound 108C] returned a CC50 in “in vitro” of over 200 nM. Also, in data set [1], the negative logarithm of the EC50 (pEC50) was under 7.00.
In the case of `CC(C)[C@@H]1/C=C/COc2c(F)cccc2[C@H](c2ccccc2)N2CN1C(=O)c1c(O)c(=O)ccn12` (single isomer, unassigned) [Compound 124BB, (9*R,18*S,*E)-4-fluoro-12-hydroxy-9-isopropyl-18-phenyl-6,9-dihydro-18H-10,17-methanobenzo[b]pyrido[1,2-f][1]oxa[5,6,9]triazacyclotridecine-11,13-dione], in the data set “in vitro”, the half-maximal cytotoxic concentration (CC50) is over 200 nM. Besides, the negative logarithm of the EC50 (pEC50) in data set [1] was 8.28.
The like results for `CC(C)[C@@H]1/C=C/COc2cc(F)c(F)c3c2[C@H](c2ccccc2SC3)N2CN1C(=O)c1c(O)c(=O)ccn12` (single isomer, unassigned) [Compound 169BB, (9*R,17a*R,*E)-24,25-difluoro-12-hydroxy-9-isopropyl-2,6,9,17a-tetrahydro-3,4-(epiprop[1]en[1]yl[3]ylidene)-10,17-methanobenzo[6,7]thiepino[4,5-c]pyrido[1,2-f][1]oxa[5,6,9]triazacyclotridecine-11,13-dione] were, in that order, over 100 nM and 8.89.
Regarding `O=C1c2c(O)c(=O)ccn2N2CN1CCCCCc1ccccc1C2c1ccccc1` (stereo not drawn) [Compound 4, 4-hydroxy-16-phenyl-7,8,9,10,11,16-hexahydro-6,17-methanobenzo[k]pyrido[1,2-b][1,2,5]triazacyclotridecine-3,5-dione], the half-maximal cytotoxic concentration (CC50) in the data set “in vitro” was over 4000 nM. Besides, the negative logarithm of the EC50 (pEC50) in data set [1] is 7.32.
For the molecule `O=C1c2c(O)c(=O)ccn2N2CN1CC/C=C/CCOc1ccccc1[C@H]2c1ccccc1` (single isomer, unassigned) [Compound 65A, (2*R,*Z)-15-hydroxy-2-phenyl-12,13,14,16-tetrahydro-11H-4-oxa-1(1,3)-pyrido[2,1-f][1,2,4]triazina-3(1,2)-benzenacyclodecaphan-7-ene-14,16-dione], the half-maximal cytotoxic concentration (CC50) in “in vitro” is over 10000 nM. The pEC50 in data set [1] is under 5.30.
On the same counts, the results for `O=C1c2c(O)c(=O)ccn2N2CN1[C@@H](C1CC1)/C=C/COc1c(ccc(F)c1F)[C@@H]2c1ccccc1` (single isomer, unassigned) [Compound 152AA, (9*S,18*S,*E)-9-cyclopropyl-3,4-difluoro-12-hydroxy-18-phenyl-6,9-dihydro-18H-10,17-methanobenzo[b]pyrido[1,2-f][1]oxa[5,6,9]triazacyclotridecine-11,13-dione] are over 100 nM and under 7.30.
For the molecule `O=C1c2c(O)c(=O)ccn2N2CN1CC/C=C/COc1ccccc1[C@H]2c1ccccc1` [Compound 10B, (2R,E)-15-hydroxy-2-phenyl-12,13,14,16-tetrahydro-11H-4-oxa-1(1,3)-pyrido[2,1-f][1,2,4]triazina-3(1,2)-benzenacyclononaphan-6-ene-14,16-dione], in “in vitro”, the cytotoxic concentration (CC50) was over 2000 nM. For the same molecule, in data set [1], the pEC50 was 7.89.
The like results for `CC[C@H]1/C=C/COc2c(Cl)cccc2[C@@H](c2ccccc2)N2CN1C(=O)c1c(O)c(=O)ccn12` (single isomer, unassigned) [Compound 98BA, (9*S,18*R,E)-4-chloro-9-ethyl-12-hydroxy-18-phenyl-6,9-dihydro-18H-10,17-methanobenzo[b]pyrido[1,2-f][1]oxa[5,6,9]triazacyclotridecine-11,13-dione] were, in that order, 26400 nM and 6.08.
On the same counts, the results for `Cc1cccc2c1OC/C=C\CN1CN([C@H]2c2ccccc2)n2ccc(=O)c(O)c2C1=O` (single isomer, unassigned) [Compound 110A, (18*S,Z)-12-hydroxy-4-methyl-18-phenyl-6,9-dihydro-18H-10,17-methanobenzo[b]pyrido[1,2-f][1]oxa[5,6,9]triazacyclotridecine-11,13-dione] are over 200 nM and 8.19.
On the same counts, the results for `O=C1c2c(O)c(=O)ccn2N2CN1C/C=C\COc1ccc(Cl)cc1[C@H]2c1ccccc1` (single isomer, unassigned) [Compound 51A] are over 2000 nM and under 6.00.
For `O=C1c2c(O)c(=O)ccn2N2CN1CCC/C=C\Cc1ccccc1C2c1ccccn1` (stereo not drawn) [Compound 15, (Z)-15-hydroxy-2-(pyridin-2-yl)-12,13,14,16-tetrahydro-11H-1(1,3)-pyrido[2,1-f][1,2,4]triazina-3(1,2)-benzenacyclononaphan-5-ene-14,16-dione], in the data set “in vitro”, the half-maximal cytotoxic concentration (CC50) is over 20000 nM. The pEC50 in data set [1] is 6.20.
The like results for `O=C1c2c(O)c(=O)ccn2N2CN1C/C=C\COc1c(cccc1C(F)(F)F)[C@@H]2c1ccccc1` (single isomer, unassigned) [Compound 130B, (18*S,Z)-12-hydroxy-18-phenyl-4-(trifluoromethyl)-6,9-dihydro-18H-10,17-methanobenzo[b]pyrido[1,2-f][1]oxa[5,6,9]triazacyclotridecine-11,13-dione] were, in that order, over 200 nM and under 7.00.
On the same counts, the results for `CC(C)[C@H]1/C=C/COc2c(ccc(F)c2F)[C@H](c2ccccc2)N2CN1C(=O)c1c(O)c(=O)ccn12` (single isomer, unassigned) [Compound 128BB] are over 200 nM and 8.41.
On the same counts, the results for `O=C1c2c(O)c(=O)ccn2N2CN1CCCCCc1ccncc1[C@H]2c1ccccc1` (single isomer, unassigned) [Compound 34A, (18*R)-12-hydroxy-18-phenyl-5,6,7,8,9,18-hexahydro-10,17-methanodipyrido[1,2-b:4′,3′-k][1,2,5]triazacyclotridecine-11,13-dione] are over 2000 nM and 7.23.
As to `O=C1c2c(O)c(=O)ccn2N2CN1C/C=C\COc1ccc(F)cc1[C@@H]2c1ccccc1` (single isomer, unassigned) [Compound 22B, (18*S,Z)-2-fluoro-12-hydroxy-18-phenyl-6,9-dihydro-18H-10,17-methanobenzo[b]pyrido[1,2-f][1]oxa[5,6,9]triazacyclotridecine-11,13-dione], in the data set “in vitro”, the CC50 was over 1000 nM. Further, in data set [1], the pEC50 is 7.92.
The like results for `C/C1=C/CN2CN([C@H](c3ccccc3)c3ccccc3OC1)n1ccc(=O)c(O)c1C2=O` (single isomer, unassigned) [Compound 44A, (18*R,*Z)-12-hydroxy-7-methyl-18-phenyl-6,9-dihydro-18H-10,17-methanobenzo[b]pyrido[1,2-f][1]oxa[5,6,9]triazacyclotridecine-11,13-dione] were, in that order, over 200 nM and under 7.00.
On to `O=C1c2c(O)c(=O)ccn2N2CN1CCC/C=C\c1ccccc1[C@H]2c1ccccc1` (single isomer, unassigned) [Compound 54A, (16*R,*Z)-4-hydroxy-16-phenyl-7,8,9,16-tetrahydro-6,17-methanobenzo[k]pyrido[1,2-b][1,2,5]triazacyclotridecine-3,5-dione], for which the CC50 in “in vitro” was over 2000 nM. Further, the pEC50 in data set [1] was under 6.00.
On the same counts, the results for `O=C1c2c(O)c(=O)ccn2N2CN1C[C@@H]1C[C@H]1COc1ccccc1[C@@H]2c1ccccc1` (single isomer, unassigned) [Compound 80AB, (1a*R,8*S,17a*R)-14-hydroxy-8-phenyl-1a,2,17,17a-tetrahydro-1H,8H-9,16-methanobenzo[b]cyclopropa[k]pyrido[1,2-f][1]oxa[5,6,9]triazacyclotridecine-13,15-dione] are over 10000 nM and 7.18.
On the same counts, the results for `O=C1c2c(O)c(=O)ccn2N2CN1C/C=C\COc1ccccc1[C@@H]2c1cccnc1` (single isomer, unassigned) [Compound 26B, (18*S,*Z)-12-hydroxy-18-(pyridin-3-yl)-6,9-dihydro-18H-10,17-methanobenzo[b]pyrido[1,2-f][1]oxa[5,6,9]triazacyclotridecine-11,13-dione] are over 4000 nM and 4.40.
The like results for `O=C1c2c(O)c(=O)ccn2N2CN1C1(/C=C/COc3cc(F)c(F)c4c3[C@@H]2c2ncccc2SC4)CCC1` (single isomer, unassigned) [Compound 168A, (21a′*R,*E)-24′,25′-difluoro-16′-hydroxy-6′,21a′-dihydro-10′H-spiro[cyclobutane-1,13′-[7,8](epiprop[1]en[1]yl[3]ylidene)[14,21]methanopyrido[1,2-f]pyrido[2′,3′:6,7]thiepino[4,5-c][1]oxa[5,6,9]triazacyclotridecine]-15′,17′-dione] were, in that order, over 100 nM and under 7.30.
As to `O=C1c2c(O)c(=O)ccn2N2CN1C/C=C\CCc1ccncc1[C@@H]2c1ccccc1` (single isomer, unassigned) [Compound 35B, (18*S,*Z)-12-hydroxy-18-phenyl-5,6,9,18-tetrahydro-10,17-methanodipyrido[1,2-b:4′,3′-k][1,2,5]triazacyclotridecine-11,13-dione], the CC50 in “in vitro” is over 2000 nM. For the same molecule, in data set [1], the negative-log EC50 (pEC50) was under 6.00.
On the same counts, the results for `O=C1c2c(O)c(=O)ccn2N2CN1C/C=C/CCc1ccccc1[C@H]2c1ccccn1` [Compound 43A, (17S,E)-4-hydroxy-16-(pyridin-2-yl)-7,10,11,16-tetrahydro-6,17-methanobenzo[k]pyrido[1,2-b][1,2,5]triazacyclotridecine-3,5-dione] are over 2000 nM and 7.66.
The like results for `CC[C@@H]1/C=C/COc2cc(Cl)ccc2[C@@H](c2ccccc2)N2CN1C(=O)c1c(O)c(=O)ccn12` (single isomer, unassigned) [Compound 97AA] were, in that order, over 1000 nM and 8.24.
The like results for `O=C1c2c(O)c(=O)ccn2N2CN1C/C=C/COc1cc(F)c(F)c3c1[C@H]2c1ccccc1SC3` (single isomer, unassigned) [Compound 140B, (17a*S,*E)-24,25-difluoro-12-hydroxy-2,6,9,17a-tetrahydro-3,4-(epiprop[1]en[1]yl[3]ylidene)-10,17-methanobenzo[6,7]thiepino[4,5-c]pyrido[1,2-f][1]oxa[5,6,9]triazacyclotridecine-11,13-dione] were, in that order, over 50 nM and 9.52.
